This is an account of results in US12630563B2, “Macrocyclic RIP2-kinase inhibitors” (Oncodesign S.A., priority 2020, dated 2026).

Where only a bound is given, the exact number is not on record here.

A word on the IC50: it is the concentration that gives 50% inhibition.

The target in this assay is T1, recombinant hRIPK2 protein (kinase domain aa 1-299-His-tagged) (Homo sapiens, UniProt O43353).
T1 construct: kinase domain aa 1-299-His-tagged; purchased Life Technologies PR7829A
T1 sequence (O43353 1-299): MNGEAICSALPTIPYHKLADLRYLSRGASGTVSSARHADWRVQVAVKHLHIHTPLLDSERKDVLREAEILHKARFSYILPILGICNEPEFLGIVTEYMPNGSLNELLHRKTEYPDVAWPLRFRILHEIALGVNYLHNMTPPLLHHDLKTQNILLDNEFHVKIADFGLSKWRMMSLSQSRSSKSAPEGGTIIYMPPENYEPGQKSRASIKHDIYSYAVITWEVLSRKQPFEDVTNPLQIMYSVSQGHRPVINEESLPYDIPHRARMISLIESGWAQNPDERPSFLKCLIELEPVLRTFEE
Kind of assay: RIPK2 AlphaLISA assay (displacement of bead-bound CZC-8004 from hRIPK2). The class given is binding. The following applies: recombinant hRIPK2 kinase domain 10 nM, 2 h at 23° C. Summed up:
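His-tagged kinase domain (10 nM, as diluted) was mixed with compound (0.8% DMSO), acceptor beads bearing the probe CZC-8004 and Ni2+ donor beads. After 2 h at 23 °C, AlphaLISA signal was read. Loss of signal reflects displacement of the probe from RIPK2.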
Background: Bead proximity is the source of the signal in Alpha formats.
Regarding `CCN(C)C(=O)c1cc2cc(c1)-c1cnn3cc(C)c(nc13)OC[C@@H]1C[C@@H](OC)C(=O)N1CCN2` [Example 62, (12R,14S)-N-ethyl-12-methoxy-N,18-dimethyl-11-oxo-16-oxa-7,10,20,21,24-pentaazapentacyclo[15.5.2.1^2,6.0^10,^14.0^20,^23]pentacosa-1(23),2(25),3,5,17(24),18,21-heptaene-4-carboxamide], the IC50 is less than 10 nM. As to `CO[C@@H]1C[C@H]2COc3nc4c(cnn4cc3C)-c3cc(cc(C(=O)N(C)OC)c3)NCCN2C1=O` [Example 63, (12R,14S)-N,12-dimethoxy-N,18-dimethyl-11-oxo-16-oxa-7,10,20,21,24-pentaazapentacyclo[15.5.2.1^2,6.0^10,^14.0^20,^23]pentacosa-1(23),2,4,6(25),17(24),18,21-heptaene-4-carboxamide], the IC50 is less than 10 nM. As to `CO[C@@H]1C[C@H]2COc3nc4c(cnn4cc3C)-c3cc(CO)cc(c3)NCCN2C1=O` [Example 64, (12R,14S)-4-(hydroxymethyl)-12-methoxy-18-methyl-16-oxa-7,10,20,21,24-pentaazapentacyclo[15.5.2.1^2,6.0^1°,^14.0^2°,^23]pentacosa-1(23),2,4,6(25),17(24),18,21-heptaen-11-one], the IC50 was 10 to 100 nM. `CO[C@@H]1C[C@H]2COc3nc4c(cnn4cc3-c3cnn(C)c3C)-c3cc(F)cc(c3)NCCN2C1=O` [Example 68]: the IC50 is less than 10 nM. Consider `CO[C@@H]1C[C@H]2COc3nc4c(cnn4cc3-c3cn(C)nc3C)-c3cc(F)cc(c3)NCCN2C1=O` [Example 69], for which the IC50 was less than 10 nM. Turning to `C#Cc1cc2cc(c1)-c1cnn3ccc(nc13)OC[C@@H]1C[C@@H](OC)C(=O)N1CCN2` [Example 70, (12R,14S)-4-ethynyl-12-methoxy-16-oxa-7,10,20,21,24-pentaazapentacyclo[15.5.2.1^2,6.0^1°,^14.0^2°,^23]pentacosa-1(23),2(25),3,5,17(24),18,21-heptaen-11-one], the IC50 is less than 10 nM. Take `C#Cc1cc2cc(c1)-c1cnn3cc(C)c(nc13)OC[C@@H]1C[C@@H](OC)C(=O)N1CCN2` [Example 71]: the IC50 is less than 10 nM.

Consider `C#Cc1cc2cc(c1)-c1cnn3ccc(nc13)OC[C@@H]1C[C@@H](OCC)C(=O)N1CCN2` [Example 72, (12R,14S)-12-ethoxy-4-ethynyl-16-oxa-7,10,20,21,24-pentaazapentacyclo[15.5. 2.1^2,6.0^10,^14.0^20,^23]pentacosa-21-heptaen-11-one], for which the IC50 is less than 10 nM. For the compound `CCOC(=O)N1CCN2C(=O)[C@H](OC)C[C@H]2COc2ccn3ncc(c3n2)-c2cc(F)cc1c2` [Example 73, Ethyl (12R,14S)-4-fluoro-12-methoxy-11-oxo-16-oxa-7,10,20,21,24-pentaazapentacyclo[15.5.2.1^2,6.0^1°,^14.0^2°,^23]pentacosa-1(23),2,4,6(25),17(24),18,21-heptaene-7-carboxylate], the IC50 fell in the range of 10 to 100 nM.

Turning to `CO[C@@H]1C[C@H]2COc3ccn4ncc(c4n3)-c3cc(F)cc(c3)N(C(C)=O)CCN2C1=O` [Example 74, (12R,14S)-7-acetyl-4-fluoro-12-methoxy-16-oxa-7,10,20,21,24-pentaazapentacyclo[15.5.2.1^2,6.0^1°,^14.0^2°,^23]pentacosa-1(23),2,4,6(25),17(24),18,21-heptaen-11-one], the IC50 is 10 to 100 nM.

Take `CO[C@@H]1C[C@H]2COc3ccn4ncc(c4n3)-c3cc(F)cc(c3)N(C)CCN2C1=O` [Example 75, (12R,14S)-4-fluoro-12-methoxy-7-methyl-16-oxa-7,10,20,21,24-pentaazapentacyclo[15.5.2.1^2,6.0^1°,^14.0^2°,^23]pentacosa-1(23),2(25),3,5,17(24),18,21-heptaen-11-one]: the IC50 lay in the range of 10 to 100 nM. Regarding `CO[C@@H]1C[C@H]2COc3ccn4ncc(c4n3)-c3cc(cc(-c4ncon4)c3)NCCN2C1=O` [Example 76, (12R,14S)-12-methoxy-4-(1,2,4-oxadiazol-3-yl)-16-oxa-7,10,20,21,24-pentaazapentacyclo[15.5.2.1^2,6.0^1°,^14.0^2°,^23]pentacosa-1(23),2(25),3,5,17(24),18,21-heptaen-11-one], the IC50 was less than 10 nM.

For the compound `COCCc1cn2ncc3c2nc1OC[C@@H]1C[C@@H](OC)C(=O)N1CCNc1cc(F)cc-3c1` [Example 77, (12R,14S)-4-fluoro-12-methoxy-18-(2-methoxyethyl)-16-oxa-7,10,20,21,24-pentaazapentacyclo[15.5.2.1^2,6.0^1°,^14.0^2°,^23]pentacosa-1(23),2(25),3,5,17(24),18,21-heptaen-11-one], the IC50 was less than 10 nM. Turning to `COCCc1cn2ncc3c2nc1OC[C@@H]1C[C@@H](OC)C(=O)N1CCNc1cc-3cc(-n2cccn2)c1` [Example 78, (12R,14S)-12-methoxy-18-(2-methoxyethyl)-4-(1H-pyrazol-1-yl)-16-oxa-7,10,20,21,24-pentaazapentacyclo[15.5. 2.1^2,6.0^10,^14.0^20,^23]pentacosa-1(23),2(25),3,5,17(24),18, 21-heptaen-11-one], the IC50 was less than 10 nM. The value for `O=C1[C@H](OC2CC2)C[C@H]2COc3ccn4ncc(c4n3)-c3cc(F)cc(c3)NCCN12` [Example 80, (12R,14S)-12-cyclopropoxy-4-fluoro-16-oxa-7,10,20,21,24-pentaazapentacyclo[15.5.2.1^2,6.0^1°,^14.0^2°,^23]pentacosa-1(23),2(25),3,5,17(24),18,21-heptaen-11-one] was less than 10 nM. As for `O=C1[C@H](OC2CC2)C[C@H]2COc3ccn4ncc(c4n3)-c3cc(cc(-n4cccn4)c3)NCCN12` [Example 81, (12R,14S)-12-cyclopropoxy-4-(1H-pyrazol-1-yl)-16-oxa-7,10,20,21,24-pentaazapentacyclo[15.5.2. 1^2,6.0^10,^14.0^20,^23]pentacosa-1(23),2(25),3,5,17(24),18,21-heptaen-11-one], the IC50 was less than 10 nM. Turning to `O=C1[C@H](O)C[C@H]2COc3ccn4ncc(c4n3)-c3cc(cc(-n4cccn4)c3)NCCN12` [Example 82, (12R,14S)-12-hydroxy-4-(1H-pyrazol-1-yl)-16-oxa-7,10,20,21,24-pentaazapentacyclo[15.5.2. 1^2,6.0^10,^14.0^20,^23]pentacosa-1(23),2(25),3,5,17(24),18,21-heptaen-11-one], the IC50 was less than 10 nM.

Regarding `CO[C@@H]1C[C@H]2COc3ccn4ncc(c4n3)-c3cc(cc(-n4nc(C)cc4C)c3)NCCN2C1=O` [Example 83, (12R,14S)-4-(3,5-dimethyl-1H-pyrazol-1-yl)-12-methoxy-16-oxa-7,10,20,21,24-pentaazapentacyclo[15.5.2.1^2,6.0^1°,^14.0^2°,^23]pentacosa-1(23),2(25),3,5,17(24),18,21-heptaen-11-one], the IC50 is less than 10 nM. For `CO[C@@H]1C[C@H]2COc3ccn4ncc(c4n3)-c3cc(cc(-n4ncc(C)c4C)c3)NCCN2C1=O` [Example 84, (12R,14S)-4-(4,5-dimethyl-1H-pyrazol-1-yl)-12-methoxy-16-oxa-7,10,20,21,24-pentaazapentacyclo[15.5.2.1^2,6.0^1°,^14.0^2°,^23]pentacosa-1(23),2(25),3,5,17(24),18,21-heptaen-11-one], the IC50 was less than 10 nM. For `CCO[C@@H]1C[C@@H]2COc3ccn4ncc(c4n3)-c3cc(cc(OC)c3)NCCN2C1=O` [Example 87, (12R,14R)-12-ethoxy-4-methoxy-16-oxa-7,10,20,21,24-pentaazapentacyclo[15.5.2.1^2,6.0^10,^14.0^20,^23]pentacosa-1(23),2,4,6(25),17(24),18,21-heptaen-11-one], the IC50 was in the range of 100 to 11000 nM.
